Assay results as given in patent publication US20180250404A1, “HIGH-Z NANOPARTICLES AND THE USE THEREOF IN RADIATION THERAPY” (Board of Regents, The University of Texas System, priority 2015, published 2018).
Entries after “also recorded” stand apart in the source; their conditions may differ.

Assays:
[1] = system: HN5 cells; test: Clonogenic survival with inhibitors of endocytosis steps plus cGNR; type: cell-based; details: HN5, 250 kVp; inhibitor pre-treatment 1 hr, then cGNR 24 hr; CPZ 5 μg/ml, BAF-A1 100 nM, LAC 1 μM, CHQ 5 μM
Text: (§1) FIGS. 5A-5G: Blocking endocytosis steps modulates radiosensitization by cGNRs. […] The radiation dose enhancement factor (DEF) at 10% cell survival was cGNR—1.08, CPZ+cGNR—1.005, BAF-A1+cGNR—1.19, LAC+cGNR—1.16, and CHQ+cGNR—1.20. (B) Intracellular localization cGNR in HN5 cells imaged by TEM 24 hrs after treatment with cGNRs in the presence of (a) PBS, (b) CPZ, (c) BAF-A1, (d) LAC or (e) CHQ for 1 hr. […] (E) Reactive oxygen species measured by CellROX assay kit following treatment of HN5 cells with 2 Gy radiation in the absence or presence of specific inhibitors of internalization with and without cGNRs. […] (F) Elemental gold content of cells analyzed by inductively coupled plasma mass spectrometry.
(§2) To study the effect of each step of cGNR internalization on radiosensitization, each step of the endocytotic pathway (energy-dependent receptor-mediated endocytosis, early endosomal entrapment, stasis in the late endosomal compartment, and endolysosomal fusion) was blocked using pharmacologic inhibitors in HN5 cells.

[2] = system: HN5 cells; test: Elemental gold content of cells by ICP-MS; type: cell-based; details: 24 h treatment
Text: as §1

[3] = system: HN5 cells; test: Intracellular localization of cGNR by TEM; type: cell-based; details: TEM 24 hrs after cGNRs, inhibitor for 1 hr
Text: as §1, §2

[4] = system: HN5 cells; test: Reactive oxygen species by CellROX assay kit; type: cell-based; details: 2 Gy radiation, with cGNRs, with or without inhibitors
Text: as §1

[5] = system: HN5 cells; test: Micronuclei per 1000 binucleated cells; type: cell-based; details: cGNRs 24 hrs and radiation, inhibitor pretreatment 1 hr
Text: as §1
FIG. 10A-10C: Number of micronuclei per 1000 binucleated cells broken down as (A) one, (B) two, or (C) multiple. Cells were treated with cGNRs and radiation in the absence or presence of specific inhibitors of internalization.

[6] = system: HN5 cells; test: γ-H2AX foci formation (DNA damage); type: cell-based; details: inhibitor pretreatment, cGNR 24h, 2 Gy (250 kV, 15 mA)
Text: as §1
Therefore, γ-H2AX was evaluated in HN5 cells pretreated with different pharmacological inhibitors and incubated with cGNR for 24h followed by 2 Gy of radiation (250 kV, 15 mA) (FIG. 5C).

[7] = system: HN5 xenografts; test: Tumor regrowth delay of HN5 xenografts with radiation; type: in vivo, nu/nu mice; details: CHQ 6 hrs and 24 hrs before radiation, with cGNRs; p=0.02
Text: as §1

Row | SMILES | radiation dose enhancement factor (DEF) at 10% cell survival [1] | cellular gold content / uptake of cGNR [2] | cellular gold content / uptake of cGNR ([2]; listed as BAF-A1) | intracellular localization of cGNR [3] | intracellular reactive oxygen species [4] | intracellular reactive oxygen species ([4]; listed as BAF-A1) | micronuclei per 1000 binucleated cells [5] | micronuclei per 1000 binucleated cells ([5]; listed as BAF-A1) | γ-H2AX foci / DNA damage [6] | γ-H2AX foci / DNA damage ([6]; listed as BAF-A1) | γ-H2AX foci / DNA damage ([6]; listed as Bafilomycin) | cellular gold content / uptake of cGNR ([2]; listed as CHQ) | time to tumor volume quadrupling [7] | γ-H2AX foci / DNA damage ([6]; listed as CHQ) | γ-H2AX foci / DNA damage ([6]; listed as CPZ) | cellular gold content / uptake of cGNR ([2]; listed as LAC) | intracellular reactive oxygen species ([4]; listed as LAC) | micronuclei per 1000 binucleated cells ([5]; listed as LAC) | γ-H2AX foci / DNA damage ([6]; listed as LAC)
1 | CO/C1=C\C(C)=C\[C@@H](C)[C@@H](O)[C@@H](C)C/C(C)=C/C=C/[C@H](OC)[C@@H]([C@@H](C)[C@@H](O)[C@H](C)[C@@]2(O)C[C@@H](O)[C@H](C)[C@@H](C(C)C)O2)OC1=O [bafilomycin A, bafilomycin A1] | 1.19 | no significant differences in the cellular uptake of cGNR | no different | unclustered cGNRs | further enhanced the intracellular ROS | even greater enhancement of oxidative stress | significantly higher number of MNBC | enhancement in radiosensitization; also recorded: significant increase in radiation-induced micronuclei formation | greatest increase in DNA damage | increased foci formation | further enhanced the DNA damage |  |  |  |  |  |  |  | 
2 | CCN(CC)CCCC(C)Nc1ccnc2cc(Cl)ccc12 (stereo not shown) [chloroquine] | 1.2 | no significant differences in the cellular uptake of cGNR |  | unclustered cGNRs |  |  |  |  | further enhanced the DNA damage |  |  | no different | statistically significant increase in time to tumor volume quadrupling | increased foci formation |  |  |  |  | 
3 | CN(C)CCCN1c2ccccc2Sc2ccc(Cl)cc21 [chlorpromazine] | 1.005 | significantly (p<0.001) inhibited the cellular uptake of cGNRs |  | blocked internalization of cGNRs | reduced the intracellular ROS |  |  |  | abrogated the effect of cGNR treatment |  |  |  |  |  | not |  |  |  | 
4 | CC(=O)N[C@@H](CSC(=O)[C@]1([C@@H](O)C(C)C)NC(=O)[C@H](C)[C@@H]1O)C(=O)O [lactacystin] | 1.16 | no significant differences in the cellular uptake of cGNR |  | unclustered cGNRs | further enhanced the intracellular ROS |  | significantly higher number of MNBC |  | further enhanced the DNA damage |  |  |  |  |  |  | no different | even greater enhancement of oxidative stress | enhancement in radiosensitization; also recorded: significant increase in radiation-induced micronuclei formation | increased foci formation
